Results published in the NIST ThermoML archive (doi:10.1016/j.jct.2010.08.006).

Experiments:
[1] = 101.33 kPa, Liquid, Vibrating tube method
[2] = xn = mol fraction of the nth substance listed; conditions: 101 kPa, Liquid, Vibrating tube method

C1CCOC1 [tetrahydrofuran]
[1]
Conditions	mass density [kg/m3]
278.15 K	903.71
288.15 K	892.94
298.15 K	882.04
308.15 K	871.01
318.15 K	859.84

C1CCOC1 [tetrahydrofuran] + O
mass density [kg/m3], [2]
Conditions	278.15 K	288.15 K	298.15 K	308.15 K	318.15 K
x2 = 0.001775	903.78	893.01	882.11	871.08	859.91
x2 = 0.003887	903.87	893.1	882.19	871.16	859.99
x2 = 0.005362	903.93	893.16	882.25	871.23	860.05
x2 = 0.007677	904.02	893.25	882.35	871.32	860.15
x2 = 0.01096	904.16	893.38	882.48	871.45	860.28
x2 = 0.0142	904.29	893.52	882.61	871.58	860.41
x2 = 0.01729	904.42	893.65	882.74	871.71	860.53
x2 = 0.01971	904.52	893.75	882.84	871.81	860.63
x2 = 0.02568	904.78	894	883.09	872.06	860.88
x2 = 0.03393	905.13	894.35	883.44	872.41	861.22
x2 = 0.04278	905.52	894.74	883.83	872.79	861.6

[2H]O[2H] [water-d2] + C1CCOC1
mass density [kg/m3], [2]
Conditions	278.15 K	288.15 K	298.15 K	308.15 K	318.15 K
x1 = 0.001848	903.83	893.06	882.16	871.13	859.96
x1 = 0.003689	903.96	893.18	882.28	871.25	860.08
x1 = 0.005866	904.1	893.33	882.43	871.4	860.22
x1 = 0.008339	904.27	893.5	882.59	871.56	860.38
x1 = 0.01068	904.43	893.65	882.75	871.72	860.54
x1 = 0.01396	904.65	893.88	882.97	871.93	860.76
x1 = 0.01768	904.91	894.13	883.23	872.19	861
x1 = 0.0203	905.09	894.31	883.4	872.36	861.18
x1 = 0.02398	905.35	894.57	883.66	872.62	861.43
x1 = 0.02882	905.69	894.9	883.99	872.95	861.76
x1 = 0.03403	906.06	895.27	884.36	873.31	862.11
x1 = 0.03668	906.25	895.46	884.55	873.49	862.3
x1 = 0.04255	906.67	895.88	884.96	873.91	862.71
